SMILES strings stand for the structures.

20 molecules from patent publication US5608091A, “Quinizarin compound, method for production thereof, and use therefor” (Nippon Shokubai Co., Ltd., priority 1993, dated 1997) can be followed below.

Data set [1] in a line: Solubility in toluene and methyl ethyl ketone, three-point scale. It is filed as physicochemical. An excerpt: In these tables, the solubility is rated on the three-point scale, wherein Δ stands for a solubility of less than 1% by weight, .largecircle. for a solubility in the approximate range of 1 to 3% by weight, and .circleincircle. for a solubility of not less than 3% by weight.

The nature of data set [2]: Stability in storage of thermal transfer recorded images. Conditions: 50° C., 50 hours. The method, then:
The recorded images obtained as described above were left standing in an atmosphere kept at 50° C. for 50 hours and, after the standing, were examined to determine the presence or absence of change caused on the images owing to the standing.
Ink compositions were prepared, transfer sheets produced, and transfer recording carried out by following the procedure of Example 89 while using the dye shown in Table 11 instead. The recorded images were tested for lightfastness and then for stability in storage in the same manner as in Example 89.
Ink compositions were prepared, transfer sheets produced, and transfer recording carried out by following the procedure of Example 89 while using the dyes shown in Table 12 instead. The recorded images were tested for lightfastness and then for stability in storage in the same manner as in Example 89.

A short description of the next data set: Color tone of the dye. In kind it is physicochemical. Conditions: Tables 1-9.
Data set [3] is described as follows: Visible absorption spectrum (λmax, ε). As to conditions: for ε: in M-1 cm-1 (unit assumed). In kind it is physicochemical.

`O=C1c2c(O)ccc(O)c2C(=O)c2c(F)c(Nc3c(Cl)cccc3Cl)c(F)c(F)c21` [(22)]: the “Solubility in methyl ethyl ketone” value in data set [1] was “.largecircle. (a solubility in the approximate range of 1 to 3% by weight)”. Moreover, the Solubility in toluene result in data set [1] (in toluene) is “.circleincircle. (a solubility of not less than 3% by weight)”. Further, the Stability in storage result in data set [2] is reported as “Good”. The Color tone entry in the data set “Color tone of the dye” is “Magenta”. In data set [3] (in chloroform), this molecule registered a λ max of 521 nm. This molecule also had a ε in data set [3] (in chloroform, at λ max) of 9470.
Regarding `CCCCCCCCOc1c(F)c2c(c(F)c1Nc1ccc(C(=O)OCC)cc1)C(=O)c1c(O)ccc(O)c1C2=O` [(33)], the Stability in storage entry in data set [2] was “Good”.
Consider `CCCCCCCCOc1c(F)c2c(c(F)c1Nc1ccc(C(=O)OCCCC)cc1)C(=O)c1c(O)ccc(O)c1C2=O` [(36)], for which the “Solubility in methyl ethyl ketone” value in data set [1] is listed as “.circleincircle. (a solubility of not less than 3% by weight)”. In addition, in data set [1] (in toluene), the Solubility in toluene result is on record as “.circleincircle. (a solubility of not less than 3% by weight)”. Moreover, the Stability in storage entry in data set [2] is listed as “Good”. For the same molecule, the Color tone result in “Color tone of the dye” is given as “Magenta”. The molecule also came in with a λ max in data set [3] (in chloroform) of 534 nm. The molecule also yielded a ε in data set [3] (in chloroform, at λ max) of 12700.
With `CCCCCCCCOc1c(F)c2c(c(F)c1Nc1ccc([N+](=O)[O-])cc1)C(=O)c1c(O)ccc(O)c1C2=O` [(41)], in data set [1], the “Solubility in methyl ethyl ketone” value is given as “.circleincircle. (a solubility of not less than 3% by weight)”. For the same molecule, the Solubility in toluene result in data set [1] (in toluene) was “.circleincircle. (a solubility of not less than 3% by weight)”. In addition, the Stability in storage result in data set [2] is “Good”. In addition, the Color tone entry in the data set “Color tone of the dye” is given as “Magenta”. Also, in data set [3] (in chloroform), the λ max is recorded as 524 nm. Moreover, the ε in data set [3] (in chloroform, at λ max) was determined as 13200.
As to `CCCCCCCCOc1c(F)c2c(c(F)c1Nc1ccc(C#N)cc1)C(=O)c1c(O)ccc(O)c1C2=O` [(45)], the “Solubility in methyl ethyl ketone” value in data set [1] is given as “.circleincircle. (a solubility of not less than 3% by weight)”. In data set [1] (in toluene), the Solubility in toluene entry is recorded as “.circleincircle. (a solubility of not less than 3% by weight)”. In addition, the Stability in storage result in data set [2] is listed as “Good”. Also, the Color tone entry in “Color tone of the dye” is “Magenta”. In data set [3] (in chloroform), this molecule displayed a λ max of 524 nm. The molecule also came in with a ε in data set [3] (in chloroform, at λ max) of 15400.
On to `CCCCCCCCOc1c(F)c2c(c(F)c1Nc1c(CC)cccc1CC)C(=O)c1c(O)ccc(O)c1C2=O` [(51)], for which the “Solubility in methyl ethyl ketone” value in data set [1] is recorded as “.circleincircle. (a solubility of not less than 3% by weight)”. In addition, the Solubility in toluene result in data set [1] (in toluene) was “.circleincircle. (a solubility of not less than 3% by weight)”. In data set [2], the Stability in storage result is listed as “Good”. In addition, the Color tone entry in “Color tone of the dye” is reported as “Purple”. Further, the λ max in data set [3] (in chloroform) is given as 563 nm. Besides, the ε in data set [3] (in chloroform, at λ max) is 11400.
As to `O=C1c2ccc(Nc3c(Cl)cccc3Cl)cc2C(=O)c2c(O)ccc(O)c21` [(102)], the Solubility result in data set [1] (in toluene) is “Not less than 3 % by weight”. Moreover, the Stability in storage result in data set [2] was “Good”. In data set [3] (in toluene), this molecule registered a λ max of 516 nm and a ε of 15600.
On to `CCc1cccc(CC)c1Nc1c(F)c2c(c(F)c1Nc1c(CC)cccc1CC)C(=O)c1c(O)ccc(O)c1C2=O` [(137)], for which the “Solubility in methyl ethyl ketone” value in data set [1] is “.largecircle. (a solubility in the approximate range of 1 to 3% by weight)”. Further, in data set [1] (in toluene), the Solubility in toluene entry was “.circleincircle. (a solubility of not less than 3% by weight)”. The Stability in storage entry in data set [2] was “Good”. In addition, in “Color tone of the dye”, the Color tone result was “Cyan”. This molecule also returned a λ max in data set [3] (in chloroform) of 657 nm. This molecule displayed a ε in data set [3] (in chloroform, at λ max) of 3000.
As to `CC(C)c1cccc(C(C)C)c1Nc1c(F)c2c(c(F)c1Nc1c(C(C)C)cccc1C(C)C)C(=O)c1c(O)ccc(O)c1C2=O` [(139)], in data set [1], the “Solubility in methyl ethyl ketone” value is “.largecircle. (a solubility in the approximate range of 1 to 3% by weight)”. The Solubility in toluene entry in data set [1] (in toluene) is “.circleincircle. (a solubility of not less than 3% by weight)”. Also, the Stability in storage entry in data set [2] is “Good”. Also, the Color tone result in the data set “Color tone of the dye” was “Cyan”. The same molecule had a λ max in data set [3] (in chloroform) of 660 nm. In data set [3] (in chloroform, at λ max), this molecule showed a ε of 26000.
With `CCc1ccc(Cl)c(CC)c1Nc1c(F)c2c(c(F)c1Nc1c(CC)ccc(Cl)c1CC)C(=O)c1c(O)ccc(O)c1C2=O` [(141)], the Stability in storage entry in data set [2] was “Good”.
Same read-out and setting: then `CCCCCCCCOc1c(Nc2cccc(C(=O)OCC)c2)c(Nc2cccc(C(=O)OCC)c2)c(F)c2c1C(=O)c1c(O)ccc(O)c1C2=O` [(156)], with “Good”; and `CCCCOc1c(Nc2c(CC)cccc2CC)c(Nc2c(CC)cccc2CC)c(F)c2c1C(=O)c1c(O)ccc(O)c1C2=O` [(158)], with “Good”.
Regarding `CCCCOc1c(Nc2c(C(C)C)cccc2C(C)C)c(Nc2c(C(C)C)cccc2C(C)C)c(F)c2c1C(=O)c1c(O)ccc(O)c1C2=O` [(159)], the Stability in storage entry in data set [2] is “Good”.
For the molecule `CCCCOc1c(Nc2c(CC)ccc(Cl)c2CC)c(Nc2c(CC)ccc(Cl)c2CC)c(F)c2c1C(=O)c1c(O)ccc(O)c1C2=O` [(160)], in data set [2], the Stability in storage result is reported as “Good”.
Still for that read-out and setting: in the case of `CCCCOc1c(Nc2c(C)cccc2C(=O)OCC)c(Nc2c(C)cccc2C(=O)OCC)c(F)c2c1C(=O)c1c(O)ccc(O)c1C2=O` [(162)] it was “Good”; in that of `CCCCCCCCOc1c(Nc2c(Cl)cccc2Cl)c(Nc2c(Cl)cccc2Cl)c(F)c2c1C(=O)c1c(O)ccc(O)c1C2=O` [(183)], “Good”.
Consider `CC(C)(C)Sc1c(F)c2c(c(F)c1SC(C)(C)C)C(=O)c1c(O)ccc(O)c1C2=O` [(305)], for which the “Solubility in methyl ethyl ketone” value in data set [1] was “.circleincircle. (a solubility of not less than 3% by weight)”. Also, the Solubility in toluene result in data set [1] (in toluene) is “.circleincircle. (a solubility of not less than 3% by weight)”. The Color tone result in the data set “Color tone of the dye” is “Orange”. The same molecule yielded a λ max in data set [3] (in chloroform) of 506 nm. The ε in data set [3] (in chloroform, at λ max) is recorded as 15300.
For `O=C1c2c(O)ccc(O)c2C(=O)c2c(F)c(SC3CCCCC3)c(SC3CCCCC3)c(F)c21` [(306)], the “Solubility in methyl ethyl ketone” value in data set [1] was “.largecircle. (a solubility in the approximate range of 1 to 3% by weight)”. Further, the Solubility in toluene entry in data set [1] (in toluene) was “.circleincircle. (a solubility of not less than 3% by weight)”. In addition, the Color tone entry in the data set “Color tone of the dye” is given as “Orange”. This molecule also yielded a λ max in data set [3] (in chloroform) of 508 nm. Besides, in data set [3] (in chloroform, at λ max), the ε was 14000.
Taken in the same sequence, the figures for `O=C1c2c(O)ccc(O)c2C(=O)c2c(Sc3ccccc3)c(Sc3ccccc3)c(Sc3ccccc3)c(Sc3ccccc3)c21` [(307)] were “.largecircle. (a solubility in the approximate range of 1 to 3% by weight)”, “.largecircle. (a solubility in the approximate range of 1 to 3% by weight)”, “Brown”, 495 nm and 12600.
Turning to `CCCCSc1c(SCCCC)c(SCCCC)c2c(c1SCCCC)C(=O)c1c(O)ccc(O)c1C2=O` [(308)], the “Solubility in methyl ethyl ketone” value in data set [1] is on record as “.largecircle. (a solubility in the approximate range of 1 to 3% by weight)”. Also, the Solubility in toluene result in data set [1] (in toluene) is listed as “.circleincircle. (a solubility of not less than 3% by weight)”. In “Color tone of the dye”, the Color tone entry is “Magenta”. The λ max in data set [3] (in chloroform) is 530 nm. In data set [3] (in chloroform, at λ max), this molecule registered a ε of 11100.
